Laboratory results as given in patent US20110053995A1, “BENZENESULFONANILIDE COMPOUND INHIBITORS OF UREA TRANSPORTERS” (THE REGENTS OF THE UNIVERSITY OF CALIFORNIA, priority 2006, published 2011).

Test system: RBCs from wild-type mice
Experiment: Osmotic water permeability, RBCs from wild-type mice
Type: cell-based, mouse
Details: inhibitors 25 μM, phloretin 0.7 mM, 10° C.
Description: FIGS. 8A-B illustrate UT-B-facilitated water transport by ‘chemical UT-B knock-out’. Osmotic water permeability was measured from the time course of RBC volume in response to a 250-mM inwardly directed sucrose gradient. FIG. 8A presents representative traces of mouse RBC water permeability performed at 10° C., with genotypes and conditions indicated. Inhibitors ureainh-201 and ureainh-302 were used at 25 μM. FIG. 8B presents osmotic water permeability coefficients (Pf) from experiments as illustrated in FIG. 8A (±SE, 3-7 curves per group of RBCs pooled from 4 mice per genotype). *, P<0.01 compared with no inhibitor; #, P<0.01 compared with wild-type (no inhibitor).
RBC urea and water permeabilities were assayed by stopped-flow light scattering using a Hi-Tech Sf-51 instrument (Wiltshire, UK). For measurement of urea permeability, dilutions of whole blood (human or mouse; see Example 1) in PBS (hematocrit: approximately 0.5%) were incubated with test compounds for 5 min and then subjected to a 250-mM inwardly directed gradient of urea. After an initial osmotic shrinking phase, the kinetics of increasing cell volume caused by urea influx were measured as the time-course of 90° scattered light intensity at 530 nm, with increasing cell volume resulting in reduced scattered light intensity. As a positive control, 0.7 mM phloretin was added to the RBC suspension prior to stopped-flow experiments. Measurements of water permeability were carried out similarly, with sucrose (cell-impermeant) used instead of urea to establish a 250-mM osmotic gradient. As a positive control, HgCl2 (0.3 mM) was added to the RBC suspension prior to stopped-flow measurements. Osmotic water permeability coefficients (Pf) were computed from light scattering data as described (van Hoek et al., J Biol Chem. 267:18267-69 (1992)).
This example describes chemical knock-out of UT-B by UT-B inhibitors in RBCs and the effect on UT-B-facilitated Water transport. […] Osmotic water permeability was measured by stopped-flow light scattering in RBCs from wild-type and AQP1-null mice as shown in FIG. 8A. […] AQP1-null RBCs had greater than 5-fold reduced Pf compared to wild-type RBCs.

| Structure (SMILES) | effect on water transport |
| --- | --- |
| Cc1ccc(Nc2nnc(-c3ccc(C(N)=O)cc3)c3ccccc23)cc1 [ureainh-302] | little effect on water transport |
| NC(=O)CSc1oc(-c2ccccc2)nc1S(=O)(=O)c1ccc(Br)cc1 [ureainh-101] | little effect on water transport |
